# Experimental data taken from EP3530661A1, “METHOD AND KIT FOR ISOTOPE-LABELLING OF A FOLATE-CONTAINING BIOLOGICAL SAMPLE FOR MASS SPECTROMETRY” (Medizinische Universität Graz, priority 2018, dated 2019).
# Columns and labels:
# HepG2 cells = assay: Methotrexate inhibition experiment in HepG2 cells, LC-MS of folate pools and C1 metabolites; assay type: cell-based, Human; conditions: 20 µM, 16 h
# Method: Inhibitors of the folate cycle are widely employed in chemotherapeutic treatment of cancer (Gonen et al.). Human liver cancer cell line HepG2 was therefore treated with methotrexate, which inhibits DHFR as trimethoprim does in bacteria: • HepG2 cells were acquired from ATCC (ATCC® HB-8065™) and grown in T75 flasks in RPMI1640 (Gibco, Thermo Fisher Scientific, Switzerland) containing 2 mM Glutamine, 2 g/L glucose and 10 % FBS. 1 mg Methotrexate hydrate (Sigma Aldrich, Buchs SG, Switzerland) was dissolved in 10 µL 1 M sodium hydroxide and diluted with phosphate buffered saline to 1 mL and sterile filtered (2.2 mM Stock solution). At 80 % cell confluence, 20 µM Methotrexate was added to the treatment group (180 µL stock solution per 20 mL medium). 180 µL of phosphate buffered saline containing 1 % (v/v) 1 M sodium hydroxide was added to the control group. 16 h post treatment, cells were harvested by trypsinization and centrifuged at 4 °C and 400 g for 5 min. The supernatant was removed and the cell pellet was briefly washed with 1 mL PBS.
# Stabilisation by reductive alkylation according to the present invention: The cell pellet was then resuspended in 0.5 mL ice cold 80 % methanol, containing 30 mM NaCNBD3, 0.2 % Formaldehyde-13C, d2 and 0.1 % acetic acid by pipetting. Samples were incubated on ice for 60 min for the stabilisation of the folate species naturally present in the cells to continue.
# Subsequent steps were carried out as described for E.coli in Example 8.
# [1] = Stability of native folate species in solution (method of Lu et al.), repeated LC-MS injection over 96 h
# Method: Native folate species were dissolved in 50:50 methanol:water, 0.1% ascorbic acid, 20 mM ammonium acetate, pH = 6.2, according to the method disclosed in Lu et al. After mixing, they were incubated at 4 °C in the auto sampler and injected repeatedly over a time span of 96h.
# [2] = absence of excess formaldehyde, non-alkaline pH (Strandler et al.); cited from earlier work
# E. coli K12 = conditions: 10 µM
# Method: 50 mL LB-Miller medium was inoculated from an overnight culture of E. coli K12 to an OD600 of 0.1 and grown at 37 °C in a 500 mL flask shaking at 300 rpm. OD was measured at 0, 60, 90 min and immediately before harvesting. After reaching an OD of 0.4, trimethoprim was added to the treatment group (5 biological replicates) (0.15 mL of a 1 mg/mL stock solution in methanol; target concentration 10 µM) and the same volume of methanol was added to the control group (5 biological replicates). […] The supernatant was removed.
# Stabilisation by reductive alkylation according to the present invention: The cells were immediately resuspended in the stabilising liquid of 0.5 mL ice cold 80 % methanol containing 30 mM NaCNBD3, 0.2 % Formaldehyde-^13C, d2 and 0.1 % acetic acid by pipetting. Samples were incubated on ice for 60 min for the stabilisation of the folate species naturally present in the cells to continue.
# Samples were then transferred to microcentrifuge tubes and centrifuged at 16,000 g for 1 min. Supernatants were transferred to a new tube and the pellet was resuspended in 0.5 mL ice cold 80 % methanol, 0.1 % acetic acid and incubated in sonic bath for 15 min. After sonication, the suspension was centrifuged at 16,000 g for 3 min and the supernatant was combined with the previous supernatant. An aliquot of 50 µL was subjected to MS analysis according to Example 2 (not concentrated sample). The remaining 950 µL were dried in a rotary evaporator and resuspended by sonication in 50 µL 80 % methanol, 0.1 % acetic acid for 15 min. Samples were centrifuged at 16,000 g for 3 min and the supernatant was analysed in MS according to Example 2 (concentrated sample).
# [3] = 50:50 methanol:water, 0.1% ascorbic acid, 20 mM ammonium acetate, pH = 6.2, 4 °C
# [4] = 30 min, vs control, p < 0.001, Fig. 7C
compound,measurement,setting,value
"CN(Cc1cnc2nc(N)nc(N)c2n1)c1ccc(C(=O)N[C@@H](CCC(=O)O)C(=O)O)cc1 [methotrexate, Methotrexate hydrate]",domino effect,HepG2 cells,No domino effect was observed
same,AICAR,HepG2 cells; vs control,upregulated
same,SAH,HepG2 cells; vs control,reduced significantly
same,SAM,HepG2 cells; vs control,reduced significantly
same,SAM to SAH ratio,HepG2 cells; vs control,reduced significantly
same,inosine monophosphate,HepG2 cells; vs control,upregulated
same,levels of thymidine,HepG2 cells; vs control,did not change
same,serine,"HepG2 cells; vs control, Fig. 8B",significantly reduced
same,reduced folates,"HepG2 cells; vs control, most of the reduced folates, Fig. 8A",significantly reduced
same,oxidized pteridines,"HepG2 cells; vs control, with the exception of DHF-Glu2, Fig. 8A",no significant increase
"Nc1nc2c(c(=O)[nH]1)N=C(CNc1ccc(C(=O)N[C@@H](CCC(=O)O)C(=O)O)cc1)CN2 [DHF, dihydrofolic acid]",oxidation upon addition of ascorbic acid,"[1]; 0.1% ascorbic acid, pH = 6.2, 4 °C",to some extent
"Nc1nc2c(c(=O)[nH]1)N1CN(c3ccc(C(=O)NC(CCC(=O)O)C(=O)O)cc3)CC1CN2 (stereo not shown) [5,10-methylen folate, 5,10-methylene THF]",dissociation to formaldehyde and THF,[2],dissociate rapidly
same,half life,[1]; [3],below 30 min
COc1cc(Cc2cnc(N)nc2N)cc(OC)c1OC [trimethoprim],"domino effect (increase of reduced folates with low glutamation number, n = 1-2)","E. coli K12; 30 min, most pronounced for THF and 5,10-methenyl THF, Fig. 7B",could be observed
same,SAM to S-adenosyhomocysteine (SAH) ratio,"E. coli K12; 30 min, vs control",not altered
same,"folates with oxidized pteridine ring (DHF, FA)","E. coli K12; 30 min, vs control, Fig. 7A",marked increase
same,poly-glutamated species with a reduced ring,"E. coli K12; 30 min, vs control, Fig. 7A",depleted
same,AICAR,E. coli K12; [4],significantly enriched
same,thymidine,E. coli K12; [4],significantly downregulated
same,mean OD600,"E. coli K12; 30 min after adding, control group 0.71",0.63
"Nc1nc2c(c(=O)[nH]1)[N+]1=CN(c3ccc(C(=O)NC(CCC(=O)O)C(=O)O)cc3)CC1CN2 (stereo not shown) [5,10-methenyl THF]",half life (degradation to 5- or 10-formyl THF),[1]; [3],less than 3 h
same,signal at the retention time of 10 min relative to that obtained by flow injection,"[1]; chromatographic conditions pH 9.2, 30 °C",11 % (AUC)
